Reference: patent publication US10793563B2, “GCN2 inhibitors and uses thereof” (Merck Patent GmbH, priority 2018, dated 2020)
Read-outs that look alike come from different tables or passages of the source.

Tests used:
[1] = target: intracellular GCN2 (phosphorylation of the GCN2 substrate eIF2α) (Homo sapiens (Human), UniProt Q9P2K8); assay: GCN2 Cellular Inhibition Assay (AlphaScreen SureFire P-eIF2α Ser51, borrelidin-treated U2OS cells); assay type: cell-based; conditions: 10 μM borrelidin, 1 h
Method in brief: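 Phospho-eIF2α (Ser51) measured by AlphaScreen SureFire in lysates of U2OS cells stimulated 1 h at 37 °C with 10 μM borrelidin alongside compound, 4-fold dilutions from 40 μM. Inhibition expressed as percent relative to borrelidin-alone controls.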

GCN2 kinase = GCN2 kinase (Homo sapiens (Human), UniProt Q9P2K8); assay: GCN2 Enzyme Inhibition Assay (Transcreener ADP2 fluorescence polarization); assay type: biochemical; conditions: 280 μM ATP, 200 μM (RS)7 peptide, 4 nM GCN2, 25° C.; for Ki: Ki(app)
Method in brief: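 At 25 °C, GCN2 kinase (typical final concentration 4 nM) and (RS)7 peptide in Tris-HCl pH 7.5 buffer with MgCl2, NaCl and DTT were preincubated with compound for 10 min, then ATP was added for a 1 h reaction. ADP was read by FP with antibody/Alexa633 tracer. Non-linear tight-binding analysis gave IC50 and apparent Ki.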

[2] = phosphorylated eIF2α Ser51, read-out: GCN2 Biomarker (IC50)

Sequence of intracellular GCN2 (phosphorylation of the GCN2 substrate eIF2α) (Q9P2K8 whole entry): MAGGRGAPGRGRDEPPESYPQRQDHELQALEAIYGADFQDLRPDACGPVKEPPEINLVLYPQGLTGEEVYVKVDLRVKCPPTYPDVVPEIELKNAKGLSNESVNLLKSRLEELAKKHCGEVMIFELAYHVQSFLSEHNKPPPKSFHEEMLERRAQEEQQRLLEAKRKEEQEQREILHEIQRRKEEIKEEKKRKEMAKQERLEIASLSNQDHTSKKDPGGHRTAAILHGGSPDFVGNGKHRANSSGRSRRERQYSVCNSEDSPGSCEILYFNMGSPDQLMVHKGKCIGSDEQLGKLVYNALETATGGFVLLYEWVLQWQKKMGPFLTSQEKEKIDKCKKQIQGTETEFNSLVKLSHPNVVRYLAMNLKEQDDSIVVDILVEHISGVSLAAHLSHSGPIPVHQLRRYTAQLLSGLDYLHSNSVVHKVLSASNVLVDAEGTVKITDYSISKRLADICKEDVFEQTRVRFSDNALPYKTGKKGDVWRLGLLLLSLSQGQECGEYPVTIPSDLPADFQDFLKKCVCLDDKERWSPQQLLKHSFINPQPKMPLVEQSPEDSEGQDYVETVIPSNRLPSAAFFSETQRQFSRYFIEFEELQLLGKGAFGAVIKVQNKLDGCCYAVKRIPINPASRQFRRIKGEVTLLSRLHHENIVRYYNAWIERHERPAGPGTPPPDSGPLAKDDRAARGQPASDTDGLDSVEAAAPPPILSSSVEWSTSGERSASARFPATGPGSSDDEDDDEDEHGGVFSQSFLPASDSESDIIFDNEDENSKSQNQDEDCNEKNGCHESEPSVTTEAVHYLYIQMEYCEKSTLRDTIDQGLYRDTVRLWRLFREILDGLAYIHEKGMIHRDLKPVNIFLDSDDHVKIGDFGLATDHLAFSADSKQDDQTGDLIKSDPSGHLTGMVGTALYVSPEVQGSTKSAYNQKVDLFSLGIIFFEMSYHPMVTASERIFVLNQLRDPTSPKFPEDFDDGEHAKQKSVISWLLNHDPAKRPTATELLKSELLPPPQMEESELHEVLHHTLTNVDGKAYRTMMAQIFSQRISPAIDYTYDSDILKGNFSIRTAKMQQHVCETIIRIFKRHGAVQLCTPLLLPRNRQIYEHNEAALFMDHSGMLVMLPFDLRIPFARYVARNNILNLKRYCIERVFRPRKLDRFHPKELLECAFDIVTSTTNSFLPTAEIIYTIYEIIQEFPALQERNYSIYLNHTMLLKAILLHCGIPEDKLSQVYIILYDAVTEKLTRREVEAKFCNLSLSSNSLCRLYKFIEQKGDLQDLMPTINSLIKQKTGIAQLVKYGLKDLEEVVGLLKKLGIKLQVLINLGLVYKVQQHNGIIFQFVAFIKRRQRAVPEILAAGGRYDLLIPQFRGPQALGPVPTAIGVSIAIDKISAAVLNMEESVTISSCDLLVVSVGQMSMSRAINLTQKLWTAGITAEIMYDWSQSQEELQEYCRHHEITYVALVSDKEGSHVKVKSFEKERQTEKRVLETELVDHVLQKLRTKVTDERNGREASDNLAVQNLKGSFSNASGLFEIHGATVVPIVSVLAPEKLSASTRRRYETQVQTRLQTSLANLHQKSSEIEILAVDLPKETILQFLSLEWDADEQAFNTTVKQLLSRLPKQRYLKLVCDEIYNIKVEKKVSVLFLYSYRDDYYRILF
Sequence of GCN2 kinase (Q9P2K8 whole entry): as above

| SMILES | IC50 [1, 2] | IC50 (GCN2 kinase) | Ki (GCN2 kinase) | IC50 ([1]; GCN2 Biomarker (IC50), phosphorylated eIF2α Ser51) |
| --- | --- | --- | --- | --- |
| CC1(C)C[C@@H]1CN1CCN(c2ccnc(-c3cnc4ccc(C(F)(F)F)cn34)n2)C[C@H]1c1cn[nH]c1 [I-529, 3-(4-((R)-4-(((S)-2,2-dimethylcyclopropyl)methyl)-3-(1H-pyrazol-4-yl)piperazin-1-yl)pyrimidin-2-yl)-6-(trifluoromethyl)imidazo[1,2-a]pyridine] | < 500 nM | < 10 nM |  |  |
| CC(O)C(=O)N1CCN(c2ccnc(-c3cnc4ccc(C(F)(F)F)cn34)n2)CC1c1cn[nH]c1 (centres unmarked) [I-420, 1-(2-(1H-pyrazol-4-yl)-4-(2-(6-(trifluoromethyl)imidazo[1,2-a]pyridin-3-yl)pyrimidin-4-yl)piperazin-1-yl)-2-hydroxypropan-1-one] | 500 to 5000 nM | 10 to 100 nM |  |  |
| CC1CN(c2nccc(-c3cnc4ccc(Cl)cn34)n2)C(C)C(c2cn[nH]c2)N1 (centres unmarked) [I-35, 6-Chloro-3-[4-[2,5-dimethyl-3-(1H-pyrazol-4-yl)piperazin-1-yl]pyrimidin-2-yl]imidazo[12-a]pyridine] | 500 to 5000 nM |  | 10 to 100 nM |  |
| C[C@@H]1CN(c2ccnc(-c3cnc4ccc(C(F)(F)F)cn34)n2)C[C@H](C)N1C(=O)c1ccn(C2CC2)n1 [I-440, (1-cyclopropyl-1H-pyrazol-3-yl)(cis-2,6-dimethyl-4-(2-(6-(trifluoromethyl)imidazo[1,2-a]pyridin-3-yl)pyrimidin-4-yl)piperazin-1-yl)methanone] | > 5000 nM | 100 to 1000 nM |  |  |
| CN(CC1CCCN(c2ccnc(-c3cnc4ccc(Cl)cn34)n2)C1)S(C)(=O)=O (centres unmarked) [I-283, N-((1-(2-(6-chloroimidazo[1,2-a]pyridin-3-yl)pyrimidin-4-yl)piperidin-3-yl)methyl)-N-methylmethanesulfonamide] | 500 to 5000 nM | 10 to 100 nM |  |  |
| C[C@@H]1CN(c2nccc(-c3cnc4cc(F)c(Cl)cn34)n2)C[C@H](c2cn[nH]c2)O1 [I-273, (2R,6S)-4-(4-(6-chloro-7-fluoroimidazo[1,2-a]pyridin-3-yl)pyrimidin-2-yl)-2-methyl-6-(1H-pyrazol-4-yl)morpholine] | < 500 nM | < 10 nM |  |  |
| Cc1cc(-c2cnc3ccc(N4CC(F)(F)C4)cn23)nc(N2C[C@H](C)C[C@H](c3cn[nH]c3)C2)n1 [I-288, 6-(3,3-difluoroazetidin-1-yl)-3-(6-methyl-2-((3R,5R)-3-methyl-5-(1H-pyrazol-4-yl)piperidin-1-yl)pyrimidin-4-yl)imidazo[1,2-a]pyridine] | < 500 nM | < 10 nM |  |  |
| CC1CC(N=S(C)(C)=O)CN(c2ccnc(-c3cnc4ccc(C(F)(F)F)cn34)n2)C1 (centres unmarked) [I-31, Dimethyl((5-methyl-1-(2-(6-(trifluoromethyl)imidazo[1,2-a]pyridin-3-yl)pyrimidin-4-yl)piperidin-3-yl)imino)-λ^6-sulfanone] | 500 to 5000 nM |  | 10 to 100 nM |  |
| FC(F)(F)c1ccc2ncc(-c3nccc(N4CCCC(n5cncn5)C4)n3)n2c1 (centres unmarked) [I-356, 3-(4-(3-(1H-1,2,4-triazol-1-yl)piperidin-1-yl)pyrimidin-2-yl)-6-(trifluoromethyl)imidazo[1,2-a]pyridine] | 500 to 5000 nM | 10 to 100 nM |  |  |
| c1ccc(Oc2ccc3ncc(-c4nccc(N5CCCC(c6cn[nH]c6)C5)n4)n3c2)cc1 (centres unmarked) [I-329, 2-{6-phenoxyimidazo[1,2-a]pyridin-3-yl}-4-[3-(1H-pyrazol-4-yl)piperidin-1-yl]pyrimidine] | < 500 nM | 10 to 100 nM |  |  |
| FC(F)(F)c1ccc2ncc(-c3nccc(N4CCN(C[C@H]5CC56CCOCC6)[C@H](c5cn[nH]c5)C4)n3)n2c1 [I-523, 3-(4-((R)-4-(((S)-6-oxaspiro[2.5]octan-1-yl)methyl)-3-(1H-pyrazol-4-yl)piperazin-1-yl)pyrimidin-2-yl)-6-(trifluoromethyl)imidazo[1,2-a]pyridine] | < 500 nM | 10 to 100 nM |  |  |
| Fc1cc2ncc(-c3nccc(N4CCOC(c5cn[nH]c5)C4)n3)n2cc1Cl (centres unmarked) [I-23, 4-[2-(6-Chloro-7-fluoro-imidazo[1,2-a]pyridin-3-yl)pyrimidin-4-yl]-2-(1H-pyrazol-4-yl)morpholine] | < 500 nM |  | < 10 nM |  |
| Cc1noc([C@H]2CN(c3ccnc(-c4cnc5cc(F)c(Cl)cn45)n3)C[C@@H](C)O2)n1 (relative stereo) [I-56, 6-Chloro-7-fluoro-3-{4-[cis-2-methyl-6-(3-methyl-[1,2,4]oxadiazol-5-yl)-morpholin-4-yl]-pyrimidin-2-yl}-imidazo[1,2-a]pyridine] |  |  | 10 to 100 nM | 500 to 5000 nM |
| CC1[C@@H](c2cn[nH]c2)NCCN1c1ccnc(-c2cnc3ccc(C(F)(F)F)cn23)n1 (stereo partly drawn) [I-310, 3-(4-((3R)-2-methyl-3-(1H-pyrazol-4-yl)piperazin-1-yl)pyrimidin-2-yl)-6-(trifluoromethyl)imidazo[1,2-a]pyridine] | < 500 nM | < 10 nM |  |  |
| COc1cc(-c2cnc3ccc(Cl)cn23)nc(N2C[C@H](C)C[C@@H](c3cn[nH]c3)C2)n1 [I-280, 6-chloro-3-(6-methoxy-2-((3R,5S)-3-methyl-5-(1H-pyrazol-4-yl)piperidin-1-yl)pyrimidin-4-yl)imidazo[1,2-a]pyridine] | < 500 nM | 10 to 100 nM |  |  |
| C[C@H]1C[C@H](c2cn[nH]c2)CN(c2nccc(-c3cnc4ccc(C5CC5)cn34)n2)C1 [I-235, 6-cyclopropyl-3-(2-((3S,5R)-3-methyl-5-(1H-pyrazol-4-yl)piperidin-1-yl)pyrimidin-4-yl)imidazo[1,2-a]pyridine] | < 500 nM | 10 to 100 nM |  |  |
| O=C(O)C1(C2CCCN(c3ccnc(-c4cnc5ccc(Cl)cn45)n3)C2)CC1 (centres unmarked) [I-297, 1-(1-(2-(6-chloroimidazo[1,2-a]pyridin-3-yl)pyrimidin-4-yl)piperidin-3-yl)cyclopropane-1-carboxylic acid] | 500 to 5000 nM | 10 to 100 nM |  |  |
| Cc1n[nH]cc1[C@@H]1CN(c2ccnc(-c3cnc4cc(Cl)c(C(F)(F)F)cn34)n2)C[C@@H](C)O1 [I-360, (2R,6R)-4-(2-(7-chloro-6-(trifluoromethyl)imidazo[1,2-a]pyridin-3-yl)pyrimidin-4-yl)-2-methyl-6-(3-methyl-1H-pyrazol-4-yl)morpholine] | < 500 nM | < 10 nM |  |  |
| CS(=O)(=O)NCC1CCCN(c2nc(-c3cnc4ccc(C(F)(F)F)cn34)ns2)C1 (centres unmarked) [I-112, N-((1-(3-(6-(trifluoromethyl)imidazo[1,2-a]pyridin-3-yl)-1,2,4-thiadiazol-5-yl)piperidin-3-yl)methyl)methanesulfonamide] | 500 to 5000 nM |  | < 10 nM |  |
| C[C@@H]1C[C@@H](c2cn[nH]c2)CN(c2nccc(-c3cnc4ccc(C5CC5)cn34)n2)C1 [I-236, 6-cyclopropyl-3-(2-((3R,5S)-3-methyl-5-(1H-pyrazol-4-yl)piperidin-1-yl)pyrimidin-4-yl)imidazo[1,2-a]pyridine] | < 500 nM | 10 to 100 nM |  |  |
| C[C@H]1[C@H](c2cn[nH]c2)N(C2COC2)CCN1c1ccnc(-c2cnc3ccc(C(F)(F)F)cn23)n1 [I-364, 3-(4-((2S,3 S)-2-methyl-4-(oxetan-3-yl)-3-(1H-pyrazol-4-yl)piperazin-1-yl)pyrimidin-2-yl)-6-(trifluoromethyl)imidazo[1,2-a]pyridine] | > 5000 nM | 100 to 1000 nM |  |  |
| Cc1noc([C@H]2CN(c3ccnc(-c4cnc5ccc(Cl)cn45)n3)C[C@@H](C)O2)n1 [I-63] | < 500 nM |  | < 10 nM |  |
